Measurements as given in PubChem BioAssay AID1195 (EPA DSSTox, 2008).

System: human maximum recommended daily dose, FDA database
Test: DSSTox (FDAMDD) FDA Maximum (Recommended) Daily Dose Database
Conditions: stronger effect = lower value
How it was run: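 MRDD values come from clinical trials with daily oral dosing, usually for 3–12 months, for the average adult, in mg/day converted to mg/kg-bw/day assuming 60 kg. Antineoplastic mg/m2 doses are divided by 37. Activity score maps log10(1/MRDD mmol) onto 1–100.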

[1] = TherapeuticCategory: antibacterial

For `CC(=O)OCC(=O)[C@@]1(O)CC[C@H]2[C@@H]3CCC4=CC(=O)CC[C@]4(C)[C@H]3C(=O)C[C@@]21C`, the maximum recommended daily dose (mmol/kg-bw/day) (TherapeuticCategory: glucocorticoid) was 0.0124.
Work on `CC1(C)S[C@@H]2[C@H](N3C(=O)C(c4ccccc4)NC3(C)C)C(=O)N2[C@H]1C(=O)O` (stereo partly drawn) yielded a maximum recommended daily dose (mmol/kg-bw/day) [1] of 0.0855.
Work on `CCC[C@@H]1C[C@@H](C(=O)N[C@@H]([C@H]2O[C@H](SC)[C@H](O)[C@@H](O)[C@H]2O)[C@@H](C)O)N(C)C1` yielded a maximum recommended daily dose (mmol/kg-bw/day) [1] of 0.0819.
Work on `OC[C@@H](O)[C@@H](O)[C@H](O)[C@@H](O)CO` yielded a maximum recommended daily dose (mmol/kg-bw/day) (TherapeuticCategory: cathartic) of 4.57.
Work on `COc1cc(N)c(Cl)cc1C(=O)NC1CCN(Cc2ccccc2)CC1` yielded a maximum recommended daily dose (mmol/kg-bw/day) (TherapeuticCategory: antiemetic, antispasmodic) of 6.69e-05.
For `Cc1cn([C@H]2C[C@H](N=[N+]=[N-])[C@@H](CO)O2)c(=O)[nH]c1=O`, the maximum recommended daily dose (mmol/kg-bw/day) (TherapeuticCategory: antiviral) was 0.0374.
Work on `CC(=O)OC1C([N+]2(C)CCCCC2)C[C@H]2[C@@H]3CC[C@H]4C[C@H](OC(C)=O)C(N5CCCCC5)C[C@]4(C)[C@H]3CC[C@]12C` (stereo partly drawn) yielded a maximum recommended daily dose (mmol/kg-bw/day) (TherapeuticCategory: skeletal muscle relaxant) of 0.000157.
`CCC1(CC)C(=O)NCC(C)C1=O` (stereo not drawn) showed a maximum recommended daily dose (mmol/kg-bw/day) (TherapeuticCategory: sedative, hypnotic) of 0.0364.
`OCCN(CCO)CCO` gave a maximum recommended daily dose (mmol/kg-bw/day) (TherapeuticCategory: analgesic) of 0.067.
`C#CC(C)(O)CC` (stereo not drawn) showed a maximum recommended daily dose (mmol/kg-bw/day) (TherapeuticCategory: hypnotic, sedative) of 0.17.
With `CN(C)CCC(c1ccc(Cl)cc1)c1ccccn1` (stereo not drawn) the maximum recommended daily dose (mmol/kg-bw/day) (TherapeuticCategory: antihistaminic) was 0.000484.
Work on `CC1=NS(=O)(=O)c2cc(Cl)ccc2N1` yielded a maximum recommended daily dose (mmol/kg-bw/day) (TherapeuticCategory: antihypertensive) of 0.0347.
`CC[C@H]1CN2CCc3cc(OC)c(OC)cc3[C@@H]2C[C@@H]1C[C@H]1NCCc2cc(OC)c(OC)cc21` was tested, and the maximum recommended daily dose (mmol/kg-bw/day) (TherapeuticCategory: antiamebic) was 0.00208.
`CCC[C@@H]1C[C@@H](C(=O)N[C@@H]([C@H]2O[C@H](SC)[C@H](O)[C@@H](O)[C@H]2O)[C@H](C)Cl)N(C)C1` showed a maximum recommended daily dose (mmol/kg-bw/day) [1] of 0.0706.
`O=C(Cn1c(=O)sc2ccc(Cl)cc21)N1CCN(CCO)CC1` was tested, and the maximum recommended daily dose (mmol/kg-bw/day) (TherapeuticCategory: antiasthmatic, anti inflammatry) was 0.0141.
With `CN(CCO)CC(O)Cn1cnc2c1c(=O)n(C)c(=O)n2C` (stereo not drawn) (tested in a mixture with another compound) the maximum recommended daily dose (mmol/kg-bw/day) (TherapeuticCategory: peripheral vasodilator) was 0.0575.
Work on `CCC(=O)O[C@]1(c2ccccc2)CCN(C)C[C@@H]1C` yielded a maximum recommended daily dose (mmol/kg-bw/day) (TherapeuticCategory: narcotic analgesic) of 0.00191.
Work on `CC(=O)OC[C@H]1O[C@@H](n2ncc(=O)[nH]c2=O)[C@H](OC(C)=O)[C@@H]1OC(C)=O` yielded a maximum recommended daily dose (mmol/kg-bw/day) (TherapeuticCategory: antineoplastic, antipsoriatic) of 0.458.
`CCCCCCCCCCC(=O)O[C@H]1CC[C@H]2[C@@H]3CCc4cc(O)ccc4[C@H]3CC[C@]12C` showed a maximum recommended daily dose (mmol/kg-bw/day) (TherapeuticCategory: estrogen) of 0.00113.
`CCN1CCN(C(=O)N[C@@H](C(=O)N[C@@H]2C(=O)N3C(C(=O)O)=C(CSc4nnnn4C)CS[C@H]23)c2ccc(O)cc2)C(=O)C1=O` showed a maximum recommended daily dose (mmol/kg-bw/day) [1] of 0.31.
For `COc1cc(C[C@@H]2NCCc3cc(O)c(O)cc32)cc(OC)c1OC`, the maximum recommended daily dose (mmol/kg-bw/day) (TherapeuticCategory: bronchodilator) was 0.000869.
For `O=C1NCC2(CCN(CCc3ccccc3)CC2)O1`, the maximum recommended daily dose (mmol/kg-bw/day) (TherapeuticCategory: bronchodilator, alpha adrenergic blocker) was 0.0307.
`CC1(C)S[C@@H]2[C@H](NC(=O)[C@H](NC(=O)N3CCN(S(C)(=O)=O)C3=O)c3ccccc3)C(=O)N2[C@H]1C(=O)O` showed a maximum recommended daily dose (mmol/kg-bw/day) [1] of 0.495.
`CNC[C@H](O)[C@@H](O)[C@H](O)[C@H](O)CO` was tested, and the maximum recommended daily dose (mmol/kg-bw/day) (TherapeuticCategory: diagnostic aid) was 0.512.
`Cc1c(C)c2c(c(C)c1O)CCC(C)(COc1ccc(CC3SC(=O)NC3=O)cc1)O2` (stereo not drawn) showed a maximum recommended daily dose (mmol/kg-bw/day) (TherapeuticCategory: antidiabetic) of 0.0226.
In the case of `CC(C)[C@@H](C)/C=C/[C@@H](C)[C@H]1CC[C@H]2/C(=C/C=C3\C[C@@H](O)CC[C@@H]3C)CCC[C@]12C`, the maximum recommended daily dose (mmol/kg-bw/day) (TherapeuticCategory: regulator) is reported as 0.000105.
Work on `CN(C)CCCC1(c2ccc(F)cc2)OCc2cc(C#N)ccc21` (stereo not drawn) yielded a maximum recommended daily dose (mmol/kg-bw/day) (TherapeuticCategory: antidepressant) of 0.00308.
With `CC1=CC(=O)c2ccccc2C1=O` the maximum recommended daily dose (mmol/kg-bw/day) (TherapeuticCategory: prothrombogenic vitamin) was 0.000193.
